# Results taken from patent publication US9352015B2, “Antimicrobial peptides” (priority 2009, dated 2016).
# “And” between values parts separate entries of the source, which are not always exact repeats. Identical values can stand only once. Like-named read-outs stand apart in the source and are kept apart here.
# Legend:
# [1] = RP-HPLC retention as measure of overall peptide hydrophobicity; assay type: physicochemical; conditions: pH 2, room temperature
# Protocol: Crude and purified peptides were analyzed on an Agilent 1100 series liquid chromatograph (Little Falls, Del.). Runs were performed on a Zorbax 300 SB-C8 column (150×2.1 mm I.D.; 5 μm particle size, 300 Å pore size) from Agilent Technologies using linear AB gradient (1% acetonitrile/min) and a flow rate of 0.25 ml/min, where eluant A was 0.2% aqueous TFA, pH 2 and eluant B was 0.2% TFA in acetonitrile.
# [2] = system: Methicillin Resistant Staphylococcus aureus (MRSA) and Staphylococcus aureus; assay type: cell-based; conditions: Mueller Hinton medium; for MIC: 24 hours at 37° C.
# Method in brief: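 MICs by microtiter broth dilution in triplicate determinations, mostly LB no-salt medium (sometimes MH or BHI), final inoculum 5×10^5 CFU/ml (1×10^5 CFU/ml in the MH variant), 24 h at 37 °C. MIC is the lowest peptide concentration inhibiting growth; tested on 20 clinical MRSA and S. aureus isolates.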
# [3] = RP-HPLC temperature profiling (peptide self-association parameter PA); assay type: physicochemical; conditions: enantiomer pairs of V681 analogs, 5° C. to 80° C., relative to peptide C
# Method in brief: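 Peptide retention was profiled by RP-HPLC at pH 2 from 5 °C to 80 °C in 3 °C increments, using a linear gradient of 0.5% acetonitrile/min. The monomeric random-coil control peptide C profile was subtracted. PA is the maximum change in retention time relative to control C; higher PA means greater self-association.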
# [4] = system: Pseudomonas aeruginosa; conditions: for MIC PAO 1: 37° C., 24 h, strain PAO1; for MIC GM (geometric mean of the MIC values): six P. aeruginosa strains; for MIC CP 204: strain CP204; for MIC M 2: strain M2; for MIC PA 14: strain PA14; for MIC PAK: strain PAK; for MIC WR 5: strain WR5
# [5] = system: human erythrocytes; test: Hemolytic activity against human erythrocytes (HC50 / MHC, microtiter dilution); assay type: cell-based; conditions: V681 analog studies
# [6] = system: human erythrocytes; test: as above; assay type: cell-based
# Protocol: (§1) Hemoglobin release was determined spectrophotometrically at 570 nm. The hemolytic activity was determined as the peptide concentration that caused 50% hemolysis of erythrocytes after 18 h (HC50). […] HC50 was determined by a plot of peptide concentration versus percent lysis.
# [7] = as above; assay type: cell-based; conditions: 1% human erythrocytes, pH 7.4, read-out: Hemolytic activity HC50
# Protocol: as §1
# [8] = human erythrocytes, concentration of peptide that results in 50% hemolysis after 18 hours at 37° C.
# [9] = human red blood cells, 50% hemolysis after 18 h
smiles,measurement,setting,value
"CC[C@@H](C)[C@@H](NC(=O)[C@@H](C)NC(=O)[C@@H](CCCCN)NC(=O)[C@@H](CC(C)C)NC(=O)[C@@H](C)NC(=O)[C@H](NC(=O)[C@@H](Cc1c[nH]cn1)NC(=O)[C@@H](CC(C)C)NC(=O)[C@H](NC(=O)[C@H](NC(=O)[C@@H](CCCCN)NC(=O)[C@@H](CCCCN)NC(=O)[C@@H](C)NC(=O)[C@@H](CO)NC(=O)[C@@H](CCCCN)NC(=O)[C@@H](Cc1ccccc1)NC(=O)[C@H](NC(=O)[C@@H](CCCCN)NC(=O)[C@@H](CC(C)C)NC(=O)[C@@H](Cc1ccccc1)NC(=O)[C@@H](CO)NC(=O)[C@@H](CCCCN)NC(=O)[C@@H](Cc1c[nH]c2ccccc12)NC(=O)[C@@H](CCCCN)NC(C)=O)[C@H](C)O)[C@H](C)O)C(C)C)[C@H](C)O)C(=O)N[C@H](CO)C(=O)N[C@H](CO)C(N)=O [Peptide D1, Ac-KWKSFLKTFKSAKKTVLHTALKAISS-amide]",Hydrophobicity (retention time in RP-HPLC),[1],76.8 min and 76.75 min
same,MIC,[2]; S. aureus strain 1,23.9 µM
same,MIC,"[2]; S. aureus strain 2, R (MRSA resistant to Oxacillin)",12.0 µM
same,MIC,[2]; S. aureus strain 3,23.9 µM
same,MIC,"[2]; S. aureus strain 4, R (MRSA resistant to Oxacillin)",23.9 µM
same,MIC,[2]; S. aureus strain 5,23.9 µM
same,MIC,[2]; S. aureus strain 6,23.9 µM
same,MIC,"[2]; S. aureus strain 7, R (MRSA resistant to Oxacillin)",3.0 µM
same,MIC,[2]; S. aureus strain 8,95.5 µM
same,MIC,"[2]; S. aureus strain 9, R (MRSA resistant to Oxacillin)",12.0 µM
same,MIC,[2]; S. aureus strain 10,12.0 µM
same,MIC,"[2]; S. aureus strain 11, R (MRSA resistant to Oxacillin)",12.0 µM
same,MIC,"[2]; S. aureus strain 12, R (MRSA resistant to Oxacillin)",6.0 µM
same,MIC,[2]; S. aureus strain 13,1.5 µM
same,MIC,"[2]; S. aureus strain 14, R (MRSA resistant to Oxacillin)",6.0 µM
same,MIC,[2]; S. aureus strain 15,47.7 µM
same,MIC,"[2]; S. aureus strain 16, R (MRSA resistant to Oxacillin)",23.9 µM
same,MIC,[2]; S. aureus strain 17,23.9 µM
same,MIC,[2]; S. aureus strain 18,23.9 µM
same,MIC,[2]; S. aureus strain 19,47.7 µM
same,MIC,[2]; S. aureus strain 20,12.0 µM
same,MIC GM (geometric mean),[2]; geometric mean of the MIC values from 20 different isolates of MRSA/SA,15.7 µM
same,PA (peptide self-association parameter),[3],2.1
same,MIC PAO 1,[4]; Brain Heart Infusion medium,31.3 µg/mL
same,MIC GM (geometric mean of the MIC values),[4]; Brain Heart Infusion medium,31.2 µg/mL
same,MIC CP 204,[4]; Brain Heart Infusion medium,62.5 µg/mL
same,MIC M 2,[4]; Brain Heart Infusion medium,62.5 µg/mL
same,MIC PA 14,[4]; Brain Heart Infusion medium,15.6 µg/mL
same,MIC PAK,[4]; Brain Heart Infusion medium,31.3 µg/mL
same,MIC WR 5,[4]; Brain Heart Infusion medium,15.6 µg/mL
same,MIC PAO 1,[4]; Mueller Hinton medium,7.8 µg/mL
same,MIC GM (geometric mean of the MIC values),[4]; Mueller Hinton medium,12.4 µg/mL
same,MIC CP 204,[4]; Mueller Hinton medium,15.6 µg/mL
same,MIC M 2,[4]; Mueller Hinton medium,7.8 µg/mL
same,MIC PA 14,[4]; Mueller Hinton medium,15.6 µg/mL
same,MIC PAK,[4]; Mueller Hinton medium,15.6 µg/mL
same,MIC WR 5,[4]; Mueller Hinton medium,15.6 µg/mL
same,Pseudomonas aeruginosa MICGM,"[4]; geometric mean, 6 different isolates, 24 hours at 37° C.",4.1 µM
same,"Hemolytic activity, minimal hemolytic concentration (MHC)",[5],non-hemolytic
same,Hemolytic activity HC50,[6]; 50% hemolysis after 18 hours at 37° C.,141 µM
same,Hemolytic activity HC50,[6]; [8],140.9 µM
same,Hemolytic activity HC50,[6]; [9],421.5 µg/mL
same,Hemolytic activity HC50,"[6]; human red blood cells, 18 h",140.9 µM
same,HC50 at 18 h,[7]; [8],141 µM
same,HC50 at 18 h,[7]; [9],422 µg/mL
